# From ChEMBL document CHEMBL5728846, “6H-thieno[2,3-e][1,2,4]triazolo[3,4-c][1,2,4]triazepine derivative” (2021)
# Assay: NF-keppaB Inhibitory Activity Evaluation Test: A549/NF-κB-luc cells (available from Panomics, Cat No. LR0051) were prepared at 375,000 cells/mL in the culture medium. The 375,000 cells/mL A549/NF-κB-luc cell suspension was seeded at 80 μL each on a white 96-well plate (available from Greiner, Cat No. 655073). One hour after seeding the cells, 10 μL of 2% DMSO solution (control) and each compound solution in each concentration were added to each well of the 96-well plate. One hour after the addition of each compound solution, 10 ng/mL of the TNF-α solution (10 μL) was added to each well of the 96-well plate. Three hours after the addition of 10 ng/mL of the TNF-α solution, 100 μL of Steady-Glo reagent (available from Promega, Cat No. E2510) was added to each well of the 96-well plate. After 30 to 90 minutes of the addition of the Steady-Glo reagent, the luminescence intensity of each well was detected by EnVision multilabel counter (available from PerkinElmer).
smiles,measurement,value
Cc1sc2c(c1C)C(c1ccc(Cl)cc1)=NN(Cc1cccc(F)n1)c1nnc(C)n1-2,IC50,33.6 nM
